Results: patent US8058437B2, “(Pyrroloquinoxalinyl) pyrazinecarbohydrazide-oxalic acid co-crystal for treatment of cancer and other diseases” (Novelix Pharmaceuticals, Inc., priority 2008, dated 2011)

Test: Salt formation experiments / physical characteristics of solid forms
Type: physicochemical
Details: solid hydrochloride salt
Method: Thus, a series of experiments was conducted to assess the preparation of NVX-144 salts of acids other than hydrochloric acid as possible novel compounds better suited to pharmaceutical preparations. […] As expected, NVX-144 base readily formed salts with strong organic acids.
Although oxalic acid co-crystals are rare, Trask et al. have reported a co-crystal of caffeine with oxalic acid (see Trask et al., “Pharmaceutical Cocrystallization: Engineering a Remedy for Caffeine Hydration,” Crystal Growth & Design, 5, 1013-21 (2005)).
Thus NVX-144 would not be expected to form a salt with oxalic acid, a relatively strong dicarboxylic acid.

For `Cl.O=C(NNc1nc2cc(F)ccc2n2cccc12)c1cnccn1` [NVX-144.HCl, N′-(7-fluoropyrrolo[1,2a]quinoxalin-4-yl)pyrazine-2-carbohydrazide hydrochloride], which “physical characteristics of crystals” value is on record?
The value was “fluffy, statically-charged, hygroscopic crystals”.
